Experimental findings from US12421228B2 (Mirati Therapeutics, Inc., priority 2019, dated 2025) are described below.

In test [1] the target is purified human, His-tagged PRC2 complex (Homo sapiens (Human), UniProt O75530). The experiment in a line: Hot Spot HMT assay, inhibition of PRC2 enzymatic activity. It counts as biochemical. To be noted: 10 nM PRC2 complex, 0.05 mg/ml core histone H3, 1 μM 3H-SAM, 1 hr at 30° C.; read-out: IC50, Inhibition of PRC2-mediated Enzymatic Activity. The gist of the method:
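Ten-point, three-fold dilution series from 1.0 μM. 10 nM PRC2 with 0.05 mg/ml core histone H3 in pH 8 Tris buffer was pre-incubated 20 min at 30 °C, then reacted with 1 μM [3H]-SAM for 1 hr at 30 °C. Tritiated H3 was captured by filter binding and scintillation-counted; IC50 was taken from the dose-response curve.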

Test [2] deals with PRC2-mediated histone H3 methylation in Pfeiffer cells (EZH2 A677G). The experiment in a line: Tri-Methyl Histone H3 (Lys 27) sandwich ELISA in Pfeiffer cells. It counts as cell-based. To be noted: Homo sapiens, 96 hours incubation, H3K27me3 ELISA, read-out: IC50 (nM), Inhibition of EZH2-mediated Histone H3 Trimethylation. The gist of the method:
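Pfeiffer DLBCL cells (EZH2 A677G) exposed to 3-fold serial compound dilutions for 96 h at 37 °C. Acid-extracted (0.4 M HCl), neutralized histones then assayed by sandwich ELISA for H3K27me3 with HRP/TMB readout at 450 nm; potency reported in bins (A ≤100 nM, B >100–≤500 nM, C >500 nM).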
(In an ELISA, binding on a coated surface is turned into a signal by an enzyme label.)

Test [3] deals with Karpas 422 cells (EZH2 Y641N). The experiment in a line: Karpas 422 cell viability (Cell Titre Glo). It counts as cell-based. To be noted: Homo sapiens, CTG viability, Day 4, Day 7 or Day 11 (time point not given), read-out: IC50 (nM), Inhibiting Proliferation of Cells Expressing an Activating Mutant Form of EZH2. An outline of the steps: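 Karpas 422 cells (EZH2 Y641N) in RPMI with 20% FBS, 1000 cells/well, exposed to compound from 10 μM in 3-fold dilutions down to 1.5 nM at 37° C. Viability by CellTiter-Glo at Day 4, 7 or 11; Day 11 plates re-fed with fresh medium and compound on Day 7. IC50 per time point.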

Where only a bound is given, the exact number is not on record here.

Sequence of purified human, His-tagged PRC2 complex (Q15910 whole entry): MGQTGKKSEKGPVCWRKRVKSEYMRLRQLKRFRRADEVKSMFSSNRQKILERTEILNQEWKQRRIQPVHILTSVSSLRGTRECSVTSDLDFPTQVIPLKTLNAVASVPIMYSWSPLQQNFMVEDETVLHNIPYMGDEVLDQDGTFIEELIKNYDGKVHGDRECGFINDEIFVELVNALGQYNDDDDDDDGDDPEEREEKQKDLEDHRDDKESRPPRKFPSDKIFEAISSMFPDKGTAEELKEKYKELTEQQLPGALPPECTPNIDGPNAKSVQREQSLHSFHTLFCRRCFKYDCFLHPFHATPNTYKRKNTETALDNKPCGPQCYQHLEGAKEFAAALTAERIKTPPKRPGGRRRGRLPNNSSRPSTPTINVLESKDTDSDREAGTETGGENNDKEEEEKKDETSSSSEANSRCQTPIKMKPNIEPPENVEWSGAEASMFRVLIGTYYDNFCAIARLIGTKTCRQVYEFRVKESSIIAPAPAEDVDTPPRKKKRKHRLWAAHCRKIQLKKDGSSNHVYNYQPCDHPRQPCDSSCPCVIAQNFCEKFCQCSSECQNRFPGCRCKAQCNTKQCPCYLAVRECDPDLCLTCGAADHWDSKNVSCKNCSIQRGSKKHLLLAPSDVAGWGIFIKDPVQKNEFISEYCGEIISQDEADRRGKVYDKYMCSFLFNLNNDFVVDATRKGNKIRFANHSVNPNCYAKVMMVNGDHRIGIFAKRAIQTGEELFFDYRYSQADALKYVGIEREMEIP
Sequence of purified human, His-tagged PRC2 complex (O75530 whole entry): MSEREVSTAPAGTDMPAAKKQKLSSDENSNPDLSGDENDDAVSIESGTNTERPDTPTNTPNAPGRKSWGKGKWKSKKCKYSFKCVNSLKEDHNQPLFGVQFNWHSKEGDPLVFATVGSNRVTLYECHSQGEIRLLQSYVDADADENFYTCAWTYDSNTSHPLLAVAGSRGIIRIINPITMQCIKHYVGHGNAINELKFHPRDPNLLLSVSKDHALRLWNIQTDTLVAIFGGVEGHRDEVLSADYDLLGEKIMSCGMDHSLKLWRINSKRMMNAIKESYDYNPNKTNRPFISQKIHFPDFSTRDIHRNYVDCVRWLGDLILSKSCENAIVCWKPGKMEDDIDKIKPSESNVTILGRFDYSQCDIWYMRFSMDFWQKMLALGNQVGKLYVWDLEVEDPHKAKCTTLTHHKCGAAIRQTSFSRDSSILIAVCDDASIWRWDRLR
Sequence of purified human, His-tagged PRC2 complex (Q15022 whole entry partner): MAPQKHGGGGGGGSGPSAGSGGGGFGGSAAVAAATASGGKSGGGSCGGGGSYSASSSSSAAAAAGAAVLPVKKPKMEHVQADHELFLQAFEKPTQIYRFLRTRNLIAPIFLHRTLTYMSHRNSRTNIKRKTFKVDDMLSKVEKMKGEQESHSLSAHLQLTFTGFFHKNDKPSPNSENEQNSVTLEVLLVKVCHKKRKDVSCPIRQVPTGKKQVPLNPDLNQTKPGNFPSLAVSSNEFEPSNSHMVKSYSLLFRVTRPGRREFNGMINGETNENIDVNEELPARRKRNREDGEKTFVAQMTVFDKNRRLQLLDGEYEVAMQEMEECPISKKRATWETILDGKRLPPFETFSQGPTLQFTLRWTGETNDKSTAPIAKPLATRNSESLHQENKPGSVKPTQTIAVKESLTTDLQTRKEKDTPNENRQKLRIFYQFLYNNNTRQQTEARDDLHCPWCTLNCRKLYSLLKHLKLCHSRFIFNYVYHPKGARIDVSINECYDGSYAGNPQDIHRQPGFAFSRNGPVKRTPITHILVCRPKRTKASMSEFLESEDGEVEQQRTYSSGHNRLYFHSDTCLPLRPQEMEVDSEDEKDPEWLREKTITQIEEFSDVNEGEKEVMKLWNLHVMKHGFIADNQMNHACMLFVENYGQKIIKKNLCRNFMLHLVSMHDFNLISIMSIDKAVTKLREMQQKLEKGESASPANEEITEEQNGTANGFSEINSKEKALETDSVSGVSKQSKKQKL
Sequence of purified human, His-tagged PRC2 complex (Q6ZN18 whole entry partner): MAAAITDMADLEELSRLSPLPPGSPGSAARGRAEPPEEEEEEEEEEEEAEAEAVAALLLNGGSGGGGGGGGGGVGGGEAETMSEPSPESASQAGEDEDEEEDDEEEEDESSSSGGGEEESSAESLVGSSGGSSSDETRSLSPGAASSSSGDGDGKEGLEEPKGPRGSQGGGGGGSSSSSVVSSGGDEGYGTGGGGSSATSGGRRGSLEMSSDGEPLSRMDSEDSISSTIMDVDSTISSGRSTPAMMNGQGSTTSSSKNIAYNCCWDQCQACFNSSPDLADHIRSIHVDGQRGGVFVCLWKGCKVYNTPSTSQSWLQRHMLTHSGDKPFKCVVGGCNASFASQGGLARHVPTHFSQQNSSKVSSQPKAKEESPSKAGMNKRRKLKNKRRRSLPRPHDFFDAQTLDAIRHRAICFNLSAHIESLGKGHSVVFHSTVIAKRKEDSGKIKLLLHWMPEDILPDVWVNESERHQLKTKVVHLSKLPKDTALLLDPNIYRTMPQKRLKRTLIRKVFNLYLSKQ
Sequence of purified human, His-tagged PRC2 complex (Q09028 whole entry partner): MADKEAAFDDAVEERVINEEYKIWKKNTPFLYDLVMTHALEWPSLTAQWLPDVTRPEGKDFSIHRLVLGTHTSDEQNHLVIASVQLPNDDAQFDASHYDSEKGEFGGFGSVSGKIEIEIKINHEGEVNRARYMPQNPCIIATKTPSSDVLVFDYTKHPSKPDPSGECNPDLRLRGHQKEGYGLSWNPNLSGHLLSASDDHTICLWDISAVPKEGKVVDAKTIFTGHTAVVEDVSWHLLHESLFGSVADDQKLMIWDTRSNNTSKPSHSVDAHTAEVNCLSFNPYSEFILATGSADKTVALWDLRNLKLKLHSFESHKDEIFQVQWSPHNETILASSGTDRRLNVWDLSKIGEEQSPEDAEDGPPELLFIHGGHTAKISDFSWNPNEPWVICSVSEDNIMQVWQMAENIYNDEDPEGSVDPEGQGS

In the case of `Cc1cc(-c2cnc(NCc3c(F)ccc4c3CCO4)c3cnc(N(C)C)cc23)n(C)n1` [Example 49, 4-(1,3-dimethyl-1H-pyrazol-5-yl)-N^1-((5-fluoro-2,3-dihydrobenzofuran-4-yl)methyl)-N^6,N^6-dimethyl-2,7-naphthyridine-1,6-diamine], the IC50 in test [1] is 100 to 250 nM; in test [2], more than 500 nM; in test [3], more than 500 nM.
For `Cc1cc(-c2cnc(NCc3c(F)ccc4c3CCO4)c3cnc(N)cc23)n(C)n1` [Example 50, 4-(1,3-dimethyl-1H-pyrazol-5-yl)-N^1-((5-fluoro-2,3-dihydrobenzofuran-4-yl)methyl)-2,7-naphthyridine-1,6-diamine], the IC50 is more than 250 nM in test [1], more than 500 nM in test [2] and more than 500 nM in test [3].
For `Cc1cc(-c2cnc(NCc3c(F)ccc4c3CCO4)c3cccnc23)n(C)n1` [Example 51, 8-(1,3-dimethyl-1H-pyrazol-5-yl)-N-((5-fluoro-2,3-dihydrobenzofuran-4-yl)methyl)-1,6-naphthyridin-5-amine], the IC50 in test [1] is more than 250 nM; in test [2], 100 to 500 nM; in test [3], not above 250 nM.
On to `COc1ccc2c(NCc3c(F)ccc4c3CCO4)ncc(-c3cc(C)nn3C)c2n1` [Example 52, 8-(1,3-dimethyl-1H-pyrazol-5-yl)-N-((5-fluoro-2,3-dihydrobenzofuran-4-yl)methyl)-2-methoxy-1,6-naphthyridin-5-amine], for which the IC50 in test [1] was more than 250 nM; in test [2] it was more than 500 nM; in test [3], more than 500 nM.
Turning to `Cc1cc(-c2cnc(NCc3c(F)ccc4c3CCO4)c3ccc(=O)[nH]c23)n(C)n1` [Example 53], the results for the IC50 in test [1], in test [2] and in test [3] were more than 250 nM, 100 to 500 nM and not above 250 nM, respectively.
The corresponding values for `COc1nccc2c(NCc3c(F)ccc4c3CCO4)ncc(-c3cc(C)nn3C)c12` [Example 54, 4-(1,3-dimethyl-1H-pyrazol-5-yl)-N-((5-fluoro-2,3-dihydrobenzofuran-4-yl)methyl)-5-methoxy-2,6-naphthyridin-1-amine] are more than 250 nM, more than 500 nM and 250 to 500 nM.
With `Cc1cc(-c2cnc(NCc3c(F)ccc4c3CCO4)c3cc[nH]c(=O)c23)n(C)n1` [Example 55, 8-(1,3-dimethyl-1H-pyrazol-5-yl)-5-(((5-fluoro-2,3-dihydrobenzofuran-4-yl)methyl)amino)-2,6-naphthyridin-1(2H)-one], the figures for the IC50 in test [1], in test [2] and in test [3] were more than 250 nM, more than 500 nM and not above 250 nM, respectively.
Turning to `Cc1cc(-c2cnc(NCc3c(F)ccc4c3CCO4)c3ccncc23)n(C)n1` [Example 56, 4-(1,3-dimethyl-1H-pyrazol-5-yl)-N-((5-fluoro-2,3-dihydrobenzofuran-4-yl)methyl)-2,6-naphthyridin-1-amine], the IC50 in test [1] was more than 250 nM; in test [2], 100 to 500 nM; in test [3], more than 500 nM.
Take `COc1ncnc2c(NCc3c(F)ccc4c3CCO4)ncc(-c3cc(C)nn3C)c12` [Example 57, 5-(1,3-dimethyl-1H-pyrazol-5-yl)-N-((5-fluoro-2,3-dihydrobenzofuran-4-yl)methyl)-4-methoxypyrido[3,4-d]pyrimidin-8-amine]: the IC50 is more than 250 nM in test [1], more than 500 nM in test [2] and more than 500 nM in test [3].
With `Cc1cc(-c2cnc(NCc3c(F)ccc4c3CCO4)c3nc[nH]c(=O)c23)n(C)n1` [Example 58, 5-(1,3-dimethyl-1H-pyrazol-5-yl)-8-(((5-fluoro-2,3-dihydrobenzofuran-4-yl)methyl)amino)pyrido[3,4-d]pyrimidin-4(3H)-one], the results for the IC50 in test [1], in test [2] and in test [3] were more than 250 nM, more than 500 nM and more than 500 nM, respectively.
Regarding `Cc1cc(-c2cnc(NCc3c(F)ccc4c3CCO4)c3ncncc23)n(C)n1` [Example 59, 5-(1,3-dimethyl-1H-pyrazol-5-yl)-N-((5-fluoro-2,3-dihydrobenzofuran-4-yl)methyl)pyrido[3,4-d]pyrimidin-8-amine], the IC50 in test [1] was more than 250 nM; in test [2] it was more than 500 nM; in test [3] it was more than 500 nM.
